These results are taken from patent US20220177902A1, “LOW-METHANE RICE” (priority 2019, published 2022).

This assay relates to methanogens. The experiment in a line: Methanogen propagation upon fumarate treatment of rice (qPCR methanogen determination). To be noted: SUSIBA2 rice and Nipponbare rice treated with fumarate for two weeks (from Week 6 to Week 8), groups Mst, MET, Msc, MBT, MMB, Arc. The protocol:
FIG. 12. Response of methanogen propagation of different groups upon fumarate treatment for two weeks (from Week 6 to Week 8). Mst (Methanosaetaceae), MET (methanogens), Msc (Methanosarcinaceae), MBT (Methanobacteriales), MMB (Methanomicrobiales), Arc (archaea), and Met for Methanocella-specific.
Quantitative PCR was performed for both methanogen determination and rice gene expression in the same way as described in Su et al. (2015).
CRISPR/Cas technology was used to successfully delete the yin transcription factor (sucrose-response region) in the yin-yang system (Jin et al. (2017)) in rice to achieve larger panicles (FIG. 11). The increased panicle size meant that more carbon was reallocated to the panicles, which in turn led to less carbon to fumarate section from roots below ground.
(In qPCR the cycle at which signal appears reflects the starting amount.)

On to `O=C(O)/C=C/C(=O)O` [fumarate], for which the “Response of methanogen propagation of different groups upon fumarate treatment” value is “all methanogen groups propagated”.
